What all share (format): in vivo
Assay [1] relates to Cabbage Looper (Trichoplusia ni, TRIPNI). Briefly: Bioassay on Cabbage Looper (CL), 128-well diet tray assay. The following applies: Trichoplusia ni. Summed up:
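Second-instar larvae, one to five per well, placed on artificial diet treated with 50 μg/cm^2 test molecule in 90:10 acetone-water, dried before infestation. Held 5–7 days at 25° C, 14:10 light-dark; percent mortality averaged over eight wells.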

The subject of assay [2] is Yellow Fever Mosquito (Aedes aegypti, AEDSAE). Kind of assay: Bioassay on Yellow Fever Mosquito (YFM), 96-well plate larval assay. The following applies: for YFM (Biological Results, rating): Species YFM (Yellow Fever Mosquito); for YFM rating: Yellow Fever Mosquito, 96-well plate larval assay. Summed up: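 Aedes aegypti larvae (about 1 day old) in liver-powder water were added to plates dispensed from DMSO master plates (4000 ppm stock) diluted with 90:10 water/acetone; six replicate plates per master. Lidded plates were held at room temperature for 3 days, then each well was scored for mortality.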

Assay [3] has as its system Beet Armyworm (Spodoptera exigua, LAPHEG). Briefly: Bioassay on Beet Armyworm (BAW), 128-well diet tray assay. In a few lines:
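Percent mortality, averaged across eight replicate wells, was scored after five to seven days at 25° C. under a 14:10 light-dark cycle. Each well's diet carried 50 μg/cm^2 of the dried test molecule and held one to five second instar larvae.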

The mark [4] stands for this setting: Species CL (Cabbage Looper), read-out: CL (Biological Results, rating).
The mark [5] stands for this setting: Species BAW (Beet Armyworm), read-out: BAW (Biological Results, rating).
The mark [6] stands for this setting: Cabbage Looper, 128-well diet tray assay, read-out: CL rating.
Where [7] appears, read: Beet Armyworm, 128-well diet tray assay, read-out: BAW rating.

This note sets out measurements from patent publication US10219516B2, “Molecules having pesticidal utility, and intermediates, compositions, and processes, related thereto” (priority 2015, dated 2019).

Each structure is given as a SMILES string. Read-outs that look alike come from different tables or passages of the source.

For `C=Cc1ccc([C@H]2[C@H](C(=O)Nc3ccc(Cl)c(C(=O)N(C)c4ccc(F)cc4)c3)C2(Cl)Cl)cc1Cl` (relative stereo) [F329, 2-Chloro-5-(trans-2,2-dichloro-3-(3-chloro-4-vinylphenyl)cyclopropane-1-carboxamido)-N-(4-fluorophenyl)-N-methylbenzamide], the pest or weed control at 50 µg/cm2 in assay [1] (setting [4]) and in assay [3] (setting [5]) was 50 to 100% each time. Besides, the “YFM (Biological Results, rating)” value in assay [2] was “A (80-100)”.
On to `CN(C(=O)c1cc(NC(=O)[C@H]2[C@H](c3ccc(Cl)c(Cl)c3)C2(Cl)Cl)ccc1F)c1ccccc1` (relative stereo) [F67, trans-5-(2,2-Dichloro-3-(3,4-dichlorophenyl)cyclopropane-1-carboxamido)-2-fluoro-N-methyl-N-phenylbenzamide], for which the pest or weed control at 50 µg/cm2 in assay [1] (setting [4]) and in assay [3] (setting [5]) was 50 to 100% throughout. The “YFM (Biological Results, rating)” value in assay [2] was “B (More than 0-Less than 80)”.
As for `COc1c(F)cc([C@H]2[C@H](C(=O)Nc3ccc(Cl)c(C(=O)Nc4ccc(F)cc4F)c3)C2(Cl)Cl)cc1Br` (relative stereo) [F543, 5-(trans-3-(3-Bromo-5-fluoro-4-methoxyphenyl)-2,2-dichlorocyclopropane-1-carboxamido)-2-chloro-N-(2,4-difluorophenyl)benzamide], the pest or weed control at 50 µg/cm2 in assay [1] (setting [6]) and in assay [3] (setting [7]) was 50 to 100% each time. For the same compound, the YFM rating result in assay [2] is on record as “A (80-100)”.
In the case of `O=C(Nc1ccc(S(=O)(=O)CC(F)(F)F)cc1)c1cc(NC(=O)[C@H]2[C@H](c3cc(Cl)cc(Cl)c3)C2(Cl)Cl)ccc1Cl` (relative stereo) [PF17, trans-2-chloro-5-(2,2-dichloro-3-(3,5-dichlorophenyl)cyclopropane-1-carboxamido)-N-(4-((2,2,2-trifluoroethyl)sulfonyl)phenyl)benzamide], the pest or weed control at 50 µg/cm2 in assay [1] (setting [6]) and in assay [3] (setting [7]) was 50 to 100% in each case. Also, the YFM rating entry in assay [2] was “B (More than 0-Less than 80)”.
Turning to `CN(C(=O)c1cc(NC(=O)[C@H]2[C@H](c3cc(F)cc(C(F)F)c3)C2(Cl)Cl)ccc1Cl)c1ccc(F)cc1` (relative stereo) [F594, 2-Chloro-5-(trans-2,2-dichloro-3-(3-(difluoromethyl)-5-fluorophenyl)cyclopropane-1-carboxamido)-N-(4-fluorophenyl)-N-methylbenzamide], the pest or weed control at 50 µg/cm2 in assay [1] (setting [6]) and in assay [3] (setting [7]) was 50 to 100% in each case. The YFM rating entry in assay [2] was “A (80-100)”.
In the case of `Cc1cc(N)ccc1NC(=O)c1cc(NC(=O)[C@H]2[C@H](c3cc(Cl)cc(Cl)c3)C2(Cl)Cl)ccc1Cl` (relative stereo) [F195, trans-N-(4-Amino-2-methylphenyl)-2-chloro-5-(2,2-dichloro-3-(3,5-dichlorophenyl)cyclopropane-1-carboxamido)benzamide], the pest or weed control at 50 µg/cm2 in assay [1] (setting [4]) and in assay [3] (setting [5]) was 50 to 100% throughout. Further, the “YFM (Biological Results, rating)” value in assay [2] was “A (80-100)”.
Turning to `Nc1cc(F)ccc1NC(=O)c1cc(NC(=O)[C@H]2[C@H](c3cc(Cl)c(Cl)c(Cl)c3)C2(Cl)Cl)ccc1Cl` [F577, N-(2-Amino-4-fluorophenyl)-2-chloro-5-((1R,3R)-2,2-dichloro-3-(3,4,5-trichlorophenyl)cyclopropane-1-carboxamido)benzamide], the pest or weed control at 50 µg/cm2 in assay [1] (setting [6]) and in assay [3] (setting [7]) was 50 to 100% in each case. Further, the YFM rating entry in assay [2] is “A (80-100)”.
As to `CN(C(=O)c1cccc(NC(=O)[C@H]2[C@H](c3ccc(Cl)c(Cl)c3)C2(Cl)Cl)c1F)c1ccccc1` (relative stereo) [F70, trans-3-(2,2-Dichloro-3-(3,4-dichlorophenyl)cyclopropane-1-carboxamido)-2-fluoro-N-methyl-N-phenylbenzamide], the pest or weed control at 50 µg/cm2 in assay [1] (setting [4]) and in assay [3] (setting [5]) was 50 to 100% throughout. Besides, the “YFM (Biological Results, rating)” value in assay [2] is recorded as “A (80-100)”.
For `C=Cc1ccc([C@H]2[C@H](C(=O)Nc3ccc(Cl)c(C(=O)Nc4ccc(F)cc4F)c3)C2(Cl)Cl)cc1C(F)(F)F` (relative stereo) [F391, 2-Chloro-5-(trans-2,2-dichloro-3-(3-(trifluoromethyl)-4-vinylphenyl)cyclopropane-1-carboxamido)-N-(2,4-difluorophenyl)benzamide], the pest or weed control at 50 µg/cm2 in assay [1] (setting [6]) and in assay [3] (setting [7]) was 50 to 100% in each case. Besides, in assay [2], the YFM rating result is given as “A (80-100)”.
Consider `N#Cc1cc(F)ccc1NC(=O)c1cc(NC(=O)[C@H]2[C@H](c3cc(C(F)(F)F)cc(C(F)(F)F)c3)C2(Cl)Cl)ccc1Cl` (relative stereo) [F308, trans-5-(3-(3,5-bis(Trifluoromethyl)phenyl)-2,2-dichlorocyclopropane-1-carboxamido)-2-chloro-N-(2-cyano-4-fluorophenyl)benzamide], for which the pest or weed control at 50 µg/cm2 in assay [1] (setting [4]) and in assay [3] (setting [5]) was 50 to 100% each time. Moreover, the “YFM (Biological Results, rating)” value in assay [2] is recorded as “A (80-100)”.
As for `COc1cc(NC(=O)c2cc(NC(=O)[C@H]3[C@H](c4cc(Cl)cc(Cl)c4)C3(Cl)Cl)ccc2Cl)ccc1F` (relative stereo) [PF52, trans-2-Chloro-5-(2,2-dichloro-3-(3,5-dichlorophenyl)cyclopropane-1-carboxamido)-N-(4-fluoro-3-methoxyphenyl)benzamide], the pest or weed control at 50 µg/cm2 in assay [1] (setting [6]) and in assay [3] (setting [7]) was 50 to 100% throughout. For the same compound, the YFM rating entry in assay [2] is recorded as “A (80-100)”.
Turning to `O=C(Nc1ccc(I)c(F)c1)c1cc(NC(=O)[C@H]2[C@H](c3cc(Cl)cc(Cl)c3)C2(Cl)Cl)ccc1Cl` (relative stereo) [F204, trans-2-Chloro-5-(2,2-dichloro-3-(3,5-dichlorophenyl)cyclopropane-1-carboxamido)-N-(3-fluoro-4-iodophenyl)benzamide], the pest or weed control at 50 µg/cm2 in assay [1] (setting [4]) and in assay [3] (setting [5]) was 50 to 100% each time. In addition, the “YFM (Biological Results, rating)” value in assay [2] is “A (80-100)”.
On to `O=C(Nc1ccc(F)cc1[N+](=O)[O-])c1cc(NC(=O)[C@H]2[C@H](c3cc(Cl)cc(Cl)c3)C2(Cl)Cl)ccc1Cl` [F554, 2-Chloro-5-((1R,3R)-2,2-dichloro-3-(3,5-dichlorophenyl)cyclopropane-1-carboxamido)-N-(4-fluoro-2-nitrophenyl)benzamide], for which the pest or weed control at 50 µg/cm2 in assay [1] (setting [6]) and in assay [3] (setting [7]) was 50 to 100% each time. Moreover, the YFM rating entry in assay [2] is “A (80-100)”.
As for `Cc1cc(N)ccc1NC(=O)c1cc(NC(=O)[C@H]2[C@H](c3cc(Cl)cc(Cl)c3)C2(Cl)Cl)ccc1Cl` [F283, N-(4-Amino-2-methylphenyl)-2-chloro-5-((1R,3R)-2,2-dichloro-3-(3,5-dichlorophenyl)cyclopropane-1-carboxamido)benzamide], the pest or weed control at 50 µg/cm2 in assay [1] (setting [4]) and in assay [3] (setting [5]) was 50 to 100% throughout. Moreover, in assay [2], the “YFM (Biological Results, rating)” value is given as “A (80-100)”.
Regarding `O=C(Nc1cncnc1)c1cc(NC(=O)[C@H]2[C@H](c3cc(Cl)cc(Cl)c3)C2(Cl)Cl)ccc1Cl` (relative stereo) [F295, trans-2-Chloro-5-(2,2-dichloro-3-(3,5-dichlorophenyl)cyclopropane-1-carboxamido)-N-(pyrimidin-5-yl)benzamide], the pest or weed control at 50 µg/cm2 in assay [1] (setting [4]) and in assay [3] (setting [5]) was 50 to 100% throughout. For the same compound, in assay [2], the “YFM (Biological Results, rating)” value was “A (80-100)”.
`COC(=O)C(O)(c1ccc(NC(=O)c2cc(NC(=O)[C@H]3[C@H](c4cc(Cl)cc(Cl)c4)C3(Cl)Cl)ccc2Cl)c(C)c1)C(F)(F)F` (relative stereo) [F257, Methyl 2-(4-(2-chloro-5-(trans)-(2,2-dichloro-3-(3,5-dichlorophenyl)cyclopropane-1-carboxamido)benzamido)-3-methylphenyl)-3,3,3-trifluoro-2-hydroxypropanoate]: the pest or weed control at 50 µg/cm2 in assay [1] (setting [4]) and in assay [3] (setting [5]) was 50 to 100% each time. Further, the “YFM (Biological Results, rating)” value in assay [2] is recorded as “A (80-100)”.
On to `CN1Cc2ccc(NC(=O)c3cc(NC(=O)C4C(c5cc(Cl)cc(Cl)c5)C4(Cl)Cl)ccc3Cl)cc2C1` (stereo not drawn) [F498, 2-Chloro-5-(trans)-2,2-dichloro-3-(3,5-dichlorophenyl)cyclopropane-1-carboxamido)-N-(2-methylisoindolin-5-yl)benzamide], for which the pest or weed control at 50 µg/cm2 in assay [1] (setting [6]) and in assay [3] (setting [7]) was 50 to 100% each time. In assay [2], the YFM rating entry was “A (80-100)”.
As for `Nc1cc(F)ccc1NC(=O)c1cc(NC(=O)[C@H]2[C@H](c3ccc(F)c(Cl)c3)C2(Cl)Cl)ccc1Cl` [F578, N-(2-Amino-4-fluorophenyl)-2-chloro-5-((1R,3R)-2,2-dichloro-3-(3-chloro-4-fluorophenyl)cyclopropane-1-carboxamido)benzamide], the pest or weed control at 50 µg/cm2 in assay [1] (setting [6]) and in assay [3] (setting [7]) was 50 to 100% throughout. For the same compound, in assay [2], the YFM rating entry is “A (80-100)”.
Turning to `Cc1cc(F)cnc1NC(=O)c1cc(NC(=O)[C@H]2[C@H](c3cc(Cl)cc(Cl)c3)C2(Cl)Cl)ccc1Cl` (relative stereo) [F242, trans-2-Chloro-5-(2,2-dichloro-3-(3,5-dichlorophenyl)cyclopropane-1-carboxamido)-N-(5-fluoro-3-methylpyridin-2-yl)benzamide], the pest or weed control at 50 µg/cm2 in assay [1] (setting [4]) and in assay [3] (setting [5]) was 50 to 100% each time. Moreover, the “YFM (Biological Results, rating)” value in assay [2] was “A (80-100)”.
